Results published in PubChem BioAssay (NCI).
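Compound exposure: 48 hours, 5 concentrations, 96-well plates. At the TGI there is no net growth.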

Legend:
Assay in all cases: NCI tumour cell line growth inhibition, 48 h
786-0 renal = test system: 786-0 renal
A498 renal = test system: A498 renal
A549 NSCLC = test system: A549 NSCLC
ACHN renal = test system: ACHN renal
CAKI-1 renal = test system: CAKI-1 renal
CCRF-CEM leukemia = test system: CCRF-CEM leukemia
COLO 205 colon = test system: COLO 205 colon
DU-145 prostate = test system: DU-145 prostate
EKVX NSCLC = test system: EKVX NSCLC
HCC-2998 colon = test system: HCC-2998 colon
HCT-116 colon = test system: HCT-116 colon
HCT-15 colon = test system: HCT-15 colon
HOP-62 NSCLC = test system: HOP-62 NSCLC
HS 578T breast = test system: HS 578T breast
HT29 colon = test system: HT29 colon
IGROV1 ovarian = test system: IGROV1 ovarian
K-562 leukemia = test system: K-562 leukemia
KM12 colon = test system: KM12 colon
LOX IMVI melanoma = test system: LOX IMVI melanoma
M14 melanoma = test system: M14 melanoma
MALME-3M melanoma = test system: MALME-3M melanoma
MCF7 breast = test system: MCF7 breast
MDA-MB-231 breast = test system: MDA-MB-231 breast
MDA-MB-435 = test system: MDA-MB-435
MDA-N = test system: MDA-N
MOLT-4 leukemia = test system: MOLT-4 leukemia
NCI-H226 lung = test system: NCI-H226 lung
NCI-H460 lung = test system: NCI-H460 lung
NCI-H522 lung = test system: NCI-H522 lung
NCI/ADR-RES ovarian = test system: NCI/ADR-RES ovarian
OVCAR-3 ovarian = test system: OVCAR-3 ovarian
OVCAR-4 ovarian = test system: OVCAR-4 ovarian
OVCAR-5 ovarian = test system: OVCAR-5 ovarian
OVCAR-8 ovarian = test system: OVCAR-8 ovarian
PC-3 prostate = test system: PC-3 prostate
RXF 393 renal = test system: RXF 393 renal
SF-268 CNS = test system: SF-268 CNS
SF-295 CNS = test system: SF-295 CNS
SF-539 CNS = test system: SF-539 CNS
SK-MEL-2 melanoma = test system: SK-MEL-2 melanoma
SK-MEL-28 melanoma = test system: SK-MEL-28 melanoma
SK-MEL-5 melanoma = test system: SK-MEL-5 melanoma
SK-OV-3 ovarian = test system: SK-OV-3 ovarian
SN12C renal = test system: SN12C renal
SNB-19 CNS = test system: SNB-19 CNS
SNB-75 CNS = test system: SNB-75 CNS
SW-620 colon = test system: SW-620 colon
T-47D breast = test system: T-47D breast
U251 CNS = test system: U251 CNS
HL-60(TB) leukemia = test system: HL-60(TB) leukemia
NCI-H23 lung = test system: NCI-H23 lung
RPMI-8226 leukemia = test system: RPMI-8226 leukemia
SR leukemia = test system: SR leukemia
TK-10 renal = test system: TK-10 renal
UACC-62 melanoma = test system: UACC-62 melanoma
UO-31 renal = test system: UO-31 renal

## O=C(Nc1ccc(F)cc1)c1cc2c(cc1Cl)Sc1nccn1S2(=O)=O
786-0 renal
  TGI: > 100 µM
A498 renal
  TGI: 74 µM
A549 NSCLC
  TGI: > 100 µM
ACHN renal
  TGI: > 100 µM
CAKI-1 renal
  TGI: > 100 µM
CCRF-CEM leukemia
  TGI: > 100 µM
COLO 205 colon
  TGI: > 100 µM
DU-145 prostate
  TGI: > 100 µM
EKVX NSCLC
  TGI: > 100 µM
HCC-2998 colon
  TGI: > 100 µM
HCT-116 colon
  TGI: > 100 µM
HCT-15 colon
  TGI: > 100 µM
HOP-62 NSCLC
  TGI: 92.9 µM
HS 578T breast
  TGI: > 100 µM
HT29 colon
  TGI: > 100 µM
IGROV1 ovarian
  TGI: > 100 µM
K-562 leukemia
  TGI: > 100 µM
KM12 colon
  TGI: > 100 µM
LOX IMVI melanoma
  TGI: > 100 µM
M14 melanoma
  TGI: > 100 µM
MALME-3M melanoma
  TGI: > 100 µM
MCF7 breast
  TGI: > 100 µM
MDA-MB-231 breast
  TGI: > 100 µM
MDA-MB-435
  TGI: > 100 µM
MDA-N
  TGI: > 100 µM
MOLT-4 leukemia
  TGI: > 100 µM
NCI-H226 lung
  TGI: > 100 µM
NCI-H460 lung
  TGI: > 100 µM
NCI-H522 lung
  TGI: > 100 µM
NCI/ADR-RES ovarian
  TGI: > 100 µM
OVCAR-3 ovarian
  TGI: > 100 µM
OVCAR-4 ovarian
  TGI: > 100 µM
OVCAR-5 ovarian
  TGI: > 100 µM
OVCAR-8 ovarian
  TGI: > 100 µM
PC-3 prostate
  TGI: > 100 µM
RXF 393 renal
  TGI: > 100 µM
SF-268 CNS
  TGI: > 100 µM
SF-295 CNS
  TGI: > 100 µM
SF-539 CNS
  TGI: > 100 µM
SK-MEL-2 melanoma
  TGI: > 100 µM
SK-MEL-28 melanoma
  TGI: > 100 µM
SK-MEL-5 melanoma
  TGI: > 100 µM
SK-OV-3 ovarian
  TGI: > 100 µM
SN12C renal
  TGI: > 100 µM
SNB-19 CNS
  TGI: > 100 µM
SNB-75 CNS
  TGI: 46.9 µM
SW-620 colon
  TGI: > 100 µM
T-47D breast
  TGI: > 100 µM
U251 CNS
  TGI: 45.2 µM

## C=CCOCn1cnc2c(=O)[nH]c(N)nc21
786-0 renal
  TGI: > 100 µM
A498 renal
  TGI: > 100 µM
A549 NSCLC
  TGI: > 100 µM
ACHN renal
  TGI: > 100 µM
CAKI-1 renal
  TGI: > 100 µM
CCRF-CEM leukemia
  TGI: > 100 µM
COLO 205 colon
  TGI: > 100 µM
DU-145 prostate
  TGI: > 100 µM
EKVX NSCLC
  TGI: > 100 µM
HCC-2998 colon
  TGI: > 100 µM
HCT-116 colon
  TGI: > 100 µM
HCT-15 colon
  TGI: > 100 µM
HL-60(TB) leukemia
  TGI: > 100 µM
HOP-62 NSCLC
  TGI: > 100 µM
HS 578T breast
  TGI: > 100 µM
IGROV1 ovarian
  TGI: > 100 µM
K-562 leukemia
  TGI: > 100 µM
KM12 colon
  TGI: > 100 µM
LOX IMVI melanoma
  TGI: > 100 µM
M14 melanoma
  TGI: > 100 µM
MALME-3M melanoma
  TGI: > 100 µM
MCF7 breast
  TGI: > 100 µM
MDA-MB-231 breast
  TGI: > 100 µM
MDA-MB-435
  TGI: > 100 µM
MDA-N
  TGI: > 100 µM
MOLT-4 leukemia
  TGI: > 100 µM
NCI-H226 lung
  TGI: > 100 µM
NCI-H23 lung
  TGI: > 100 µM
NCI-H460 lung
  TGI: > 100 µM
NCI/ADR-RES ovarian
  TGI: > 100 µM
OVCAR-4 ovarian
  TGI: > 100 µM
OVCAR-5 ovarian
  TGI: > 100 µM
OVCAR-8 ovarian
  TGI: > 100 µM
PC-3 prostate
  TGI: > 100 µM
RPMI-8226 leukemia
  TGI: > 100 µM
SF-268 CNS
  TGI: > 100 µM
SF-295 CNS
  TGI: > 100 µM
SF-539 CNS
  TGI: > 100 µM
SK-MEL-2 melanoma
  TGI: > 100 µM
SK-MEL-28 melanoma
  TGI: > 100 µM
SK-MEL-5 melanoma
  TGI: > 100 µM
SK-OV-3 ovarian
  TGI: > 100 µM
SN12C renal
  TGI: > 100 µM
SNB-19 CNS
  TGI: > 100 µM
SNB-75 CNS
  TGI: > 100 µM
SR leukemia
  TGI: > 100 µM
SW-620 colon
  TGI: > 100 µM
T-47D breast
  TGI: > 100 µM
TK-10 renal
  TGI: > 100 µM
U251 CNS
  TGI: > 100 µM
UACC-62 melanoma
  TGI: > 100 µM
UO-31 renal
  TGI: > 100 µM
